{
  "source": "patent US9290451B2",
  "about": "(Hoffmann-La Roche Inc., priority 2011, dated 2016)",
  "key": {"human CB2 receptors": {"target": "human CB2 receptors (Homo sapiens (Human), UniProt P34972)", "sequence (P34972 whole entry)": "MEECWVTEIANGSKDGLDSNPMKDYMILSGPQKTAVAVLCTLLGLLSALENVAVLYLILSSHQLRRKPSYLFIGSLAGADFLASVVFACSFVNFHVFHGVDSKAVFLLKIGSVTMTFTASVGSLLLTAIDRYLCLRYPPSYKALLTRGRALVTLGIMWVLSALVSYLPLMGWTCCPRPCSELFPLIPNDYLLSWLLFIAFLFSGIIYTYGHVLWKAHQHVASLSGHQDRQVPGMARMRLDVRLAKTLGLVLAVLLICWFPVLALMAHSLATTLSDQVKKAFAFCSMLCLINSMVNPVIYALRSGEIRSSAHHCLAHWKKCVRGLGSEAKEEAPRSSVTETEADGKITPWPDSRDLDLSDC", "assay": "cAMP assay, CHO cells expressing human CB2 receptors", "format": "cell-based", "settings": "CHO cells expressing human CB2, cAMP; read-out: human CB2 EC50", "summary_of_the_method": "(§1)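 In this cellular cAMP test, IBMX (1 mM) blocked phosphodiesterase during a 30-min, 30 °C compound exposure. Accumulated cAMP was measured by a lysis-based TR-FRET kit and interpolated from a standard curve to give EC50.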"}, "human CB1 receptors": {"target": "human CB1 receptors (Homo sapiens (Human), UniProt P21554)", "sequence (P21554 whole entry)": "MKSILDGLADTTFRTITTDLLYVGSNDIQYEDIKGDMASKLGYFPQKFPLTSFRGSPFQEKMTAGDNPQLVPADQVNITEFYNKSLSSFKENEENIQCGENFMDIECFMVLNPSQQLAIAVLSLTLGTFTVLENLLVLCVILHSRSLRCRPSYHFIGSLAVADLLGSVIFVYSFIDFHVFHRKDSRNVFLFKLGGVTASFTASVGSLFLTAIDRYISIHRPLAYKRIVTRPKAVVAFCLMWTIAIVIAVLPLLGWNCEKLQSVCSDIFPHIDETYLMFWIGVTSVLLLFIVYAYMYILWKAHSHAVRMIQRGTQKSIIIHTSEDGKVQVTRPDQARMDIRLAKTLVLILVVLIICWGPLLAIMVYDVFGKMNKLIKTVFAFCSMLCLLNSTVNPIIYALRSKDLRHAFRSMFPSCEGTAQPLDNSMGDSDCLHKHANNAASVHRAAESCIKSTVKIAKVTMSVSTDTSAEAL", "assay": "cAMP assay, CHO cells expressing human CB1 receptors", "format": "cell-based", "settings": "CHO cells expressing human CB1, cAMP; read-out: human CB1 EC50", "summary_of_the_method": "as §1"}},
  "note": "pEC50: −log10 of the molar value.",
  "data": [
    {"molecule": "CNC(=O)[C@H](CC(C)(C)C)NC(=O)c1ccc(N2CC(F)(F)C2)c(OCC2CC2)n1", "note": "[Example 209, (S)-6-(Cyclopropylmethoxy)-5-(3,3-difluoroazetidin-1-yl)-N-(4,4-dimethyl-1-(methylamino)-1-oxopentan-2-yl)picolinamide]", "values": [
      {"measurement": "pEC50", "setting": "human CB2 receptors", "value": 8.60},
      {"measurement": "pEC50", "setting": "human CB1 receptors", "value": "< 5.00"}
    ]},
    {"molecule": "O=C(NC1(c2nccs2)COC1)c1ccc(Br)c(OCC(F)(F)F)n1", "note": "[Example 282, 5-Bromo-6-(2,2,2-trifluoro-ethoxy)-pyridine-2-carboxylic acid (3-thiazol-2-yl-oxetan-3-yl)-amide]", "values": [
      {"measurement": "pEC50", "setting": "human CB2 receptors", "value": 6.43},
      {"measurement": "pEC50", "setting": "human CB1 receptors", "value": "< 5.00"}
    ]},
    {"molecule": "O=C(NN1CCCOC1=O)c1ccc(C2CC2)c(OCC2CC2)n1", "note": "[Example 371, 5-Cyclopropyl-6-cyclopropylmethoxy-pyridine-2-carboxylic acid (2-oxo-[1,3]oxazinan-3-yl)-amide]", "values": [
      {"measurement": "pEC50", "setting": "human CB2 receptors", "value": 6.36},
      {"measurement": "pEC50", "setting": "human CB1 receptors", "value": "< 5.00"}
    ]},
    {"molecule": "CNC(=O)C(C)(C)NC(=O)c1ccc(C2CCCC2)c(OCC2CC2)n1", "note": "[Example 40, 5-Cyclopentyl-6-cyclopropylmethoxy-pyridine-2-carboxylic acid (1-methyl-1-methylcarbamoyl-ethyl)-amide]", "values": [
      {"measurement": "pEC50", "setting": "human CB2 receptors", "value": 7.51},
      {"measurement": "pEC50", "setting": "human CB1 receptors", "value": "< 5.00"}
    ]},
    {"molecule": "CNC(=O)[C@@H](NC(=O)c1ccc(Br)c(OCC2CCCO2)n1)C(C)(C)C", "note": "(stereo partly drawn) [Example 188, 5-Bromo-6-(tetrahydro-furan-2-ylmethoxy)-pyridine-2-carboxylic acid ((S)-2,2-dimethyl-1-methylcarbamoyl-propyl)-amide]", "values": [
      {"measurement": "pEC50", "setting": "human CB2 receptors", "value": 8.30},
      {"measurement": "pEC50", "setting": "human CB1 receptors", "value": 6.43}
    ]},
    {"molecule": "Cc1nc([C@H](CC2CC2)NC(=O)c2ccc(N3CC(F)(F)C3)c(-c3cccc(Cl)c3)n2)no1", "note": "[Example 164, 6-(3-Chloro-phenyl)-5-(3,3-difluoro-azetidin-1-yl)-pyridine-2-carboxylic acid [(S)-2-cyclopropyl-1-(5-methyl-[1,2,4]oxadiazol-3-yl)-ethyl]-amide]", "values": [
      {"measurement": "pEC50", "setting": "human CB2 receptors", "value": 6.60},
      {"measurement": "pEC50", "setting": "human CB1 receptors", "value": "< 5.00"}
    ]},
    {"molecule": "O=C(NC1(c2nccs2)COC1)c1ccc(C2CC2)c(OCC(F)(F)F)n1", "note": "[Example 304, 5-Cyclopropyl-6-(2,2,2-trifluoro-ethoxy)-pyridine-2-carboxylic acid (3-thiazol-2-yl-oxetan-3-yl)-amide]", "values": [
      {"measurement": "pEC50", "setting": "human CB2 receptors", "value": 6.87},
      {"measurement": "pEC50", "setting": "human CB1 receptors", "value": "< 5.00"}
    ]}
  ]
}
